Laboratory results: patent US11597724B2, “Herbicidally active 3-phenylisoxazoline-5-carboxamides of tetrahydro and dihydrofuran carboxylic acids and esters” (Bayer Aktiengesellschaft, priority 2017, dated 2023)

Columns and labels:
Type in all cases: in vivo
Alopecurus myosuroides = experiment: Pre-emergence herbicidal activity against ALOMY; details: Alopecurus myosuroides, 504 h, dosage 80 g/ha, scored visually after about 3 weeks vs untreated controls (100% = plants have died, 0% = like control plants)
From the text: 1. Pre-Emergence Herbicidal Action and Crop Plant Compatibility Seeds of monocotyledonous and dicotyledonous weed plants and crop plants are placed in plastic or wood fiber pots and covered with soil. The compounds of the invention, formulated in the form of wettable powders (WP) or as emulsion concentrates (EC), are then applied onto the surface of the covering soil as aqueous suspension or emulsion with addition of 0.5% additive at a water application rate of 600 l/ha (converted). After the treatment, the pots are placed in a greenhouse and kept under good growth conditions for the trial plants. After about 3 weeks, the effect of the preparations is scored visually in comparison with untreated controls as percentages. For example, 100% activity=the plants have died, 0% activity=like control plants. ABUTH: Abutilon theophrasti ALOMY: Alopecurus myosuroides

Lolium rigidum = experiment: Post-emergence herbicidal activity against LOLRI; details: Lolium rigidum, 504 h, dosage 320 g/ha, rated about 3 weeks after treatment
Procedure, shortened: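 Greenhouse-grown plants sprayed post-emergence at the one-leaf stage, 2 to 3 weeks after sowing, with WP or EC formulations plus 0.5% additive at 600 l/ha water. Activity rated visually after about 3 weeks versus untreated controls (100% = plants dead, 0% = like control).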

Abutilon theophrasti = experiment: Post-emergence herbicidal activity against ABUTH; details: Abutilon theophrasti, 504 h, dosage 320 g/ha, rated about 3 weeks after treatment
Procedure, shortened: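 Greenhouse-grown plants treated at one-leaf stage, 2 to 3 weeks after sowing, with WP or EC formulations sprayed as aqueous suspension/emulsion plus 0.5% additive at 600 l/ha. Activity rated visually about 3 weeks later versus untreated controls (100% = plants dead, 0% = like control).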

Veronica persica = experiment: Pre-emergence herbicidal activity against VERPE; details: Veronica persica, 504 h, dosage 80 g/ha
Procedure, shortened: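 Weed seeds sown in pots and covered with soil, then WP or EC formulations sprayed onto the soil surface as aqueous suspension/emulsion with 0.5% additive at 600 l/ha water. Kept in greenhouse; visual percent effect versus untreated controls scored after about 3 weeks (100% = plants dead).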

[1] = Post-emergence treatment, summary over harmful plants; details: 504 h, application rate of 0.32 kg of active substance or less per hectare, read-out: herbicidal action, post-emergence treatment (very good herbicidal activity)
Procedure, shortened: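 Greenhouse-grown weeds and crops were sprayed at the one-leaf stage (2–3 weeks post-sowing) with WP or EC formulations plus 0.5% additive at 600 l/ha water. About 3 weeks later, activity was visually rated against untreated controls (100% = dead plants, 0% = like control).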

Viola tricolor = experiment: Post-emergence herbicidal activity against VIOTR; details: Viola tricolor, 504 h, dosage 320 g/ha, rated about 3 weeks after treatment
Procedure, shortened: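 Greenhouse plants in sandy loam treated at one-leaf stage, 2 to 3 weeks after sowing, by spraying WP or EC formulations with 0.5% additive at 600 l/ha water. Activity rated visually after about 3 weeks versus untreated controls, 100% = plants dead, 0% = like control.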

`COC(=O)C1=C[C@@H](NC(=O)C2(C)CC(c3cccc(F)c3)=NO2)CO1` (stereo partly drawn) [I-46, methyl (3R)-3-[[3-(3-fluorophenyl)-5-methyl-4H-isoxazole-5-carbonyl]amino]-2,3-dihydrofuran-5-carboxylate] showed a pest or weed control at 80 g/ha (Alopecurus myosuroides) of 100%, a pest or weed control at 320 g/ha (Lolium rigidum) of 100% and a pest or weed control at 320 g/ha (Abutilon theophrasti) of 80%. It also gave a pest or weed control at 80 g/ha (Veronica persica) of 80%, a pest or weed control at 320 g/ha [1] of 80 to 100% and a pest or weed control at 320 g/ha (Viola tricolor) of 90%.
`C=C[C@]1(C(=O)N[C@H]2CO[C@@H](C(=O)OCc3ccccc3)C2)CC(c2cc(F)cc(F)c2)=NO1` (mixture of isomers) [I-37, benzyl cis-4-[[(5S)-3-(3,5-difluorophenyl)-5-vinyl-4H-isoxazole-5-carbonyl]amino]tetrahydrofuran-2-carboxylate] gave a pest or weed control at 80 g/ha (Alopecurus myosuroides) of 100%, a pest or weed control at 320 g/ha (Lolium rigidum) of 90% and a pest or weed control at 320 g/ha (Abutilon theophrasti) of 80%. It also gave a pest or weed control at 80 g/ha (Veronica persica) of 100%, a pest or weed control at 320 g/ha [1] of 80 to 100% and a pest or weed control at 320 g/ha (Viola tricolor) of 80%.
In the case of `C=C[C@]1(C(=O)N[C@H]2CO[C@@H](C(=O)OCC)C2)CC(c2cc(F)cc(F)c2)=NO1` (mixture of isomers) [I-35, ethyl cis-4-[[(5S)-3-(3,5-difluorophenyl)-5-vinyl-4H-isoxazole-5-carbonyl]amino]tetrahydrofuran-2-carboxylate], the pest or weed control at 80 g/ha (Alopecurus myosuroides) is reported as 100%, the pest or weed control at 320 g/ha (Lolium rigidum) is reported as 100% and the pest or weed control at 320 g/ha (Abutilon theophrasti) is reported as 80%. For the same molecule, the pest or weed control at 80 g/ha (Veronica persica) was 100%, the pest or weed control at 320 g/ha [1] was 80 to 100% and the pest or weed control at 320 g/ha (Viola tricolor) was 80%.
